IC50 data for one molecule are collected here from article PMC5046737, “Target and Non-target Site Mechanisms Developed by Glyphosate-Resistant Hairy beggarticks (Bidens pilosa L.) Populations from Mexico” (Frontiers in Plant Science, 2016).

In assay [1] the test system is T1, EPSPS of the susceptible (S) population (EPSPS1 and EPSPS2).
T1 construct: native enzyme in raw leaf extract; both isozymes expressed
Description: EPSPS activity in leaf extract, continuous phosphate release (EnzChek). To be noted: raw leaf extract, mixed isozymes; 10 min at 360 nm; glyphosate 0-10000 μM; text prints 0.95 μM; read-out: I50. The class given is biochemical, Bidens pilosa.

Assay [2] deals with EPSPS of the resistant R1 population (EPSPS1 and EPSPS2, mixed alleles). The following applies: read-out: I50; raw leaf extract, mixed isozymes and alleles (wild type, P106S, T102I/P106S); stated gain. An excerpt:
EPSPS activity in leaf extract, continuous phosphate release (EnzChek) on EPSPS of the resistant R1 population (EPSPS1 and EPSPS2, mixed alleles)

The test system of assay [3] is T2, EPSPS of the resistant R2 population (EPSPS1 and EPSPS2).
T2 construct: native enzyme in raw leaf extract; isozyme mix unknown
Briefly: EPSPS activity in leaf extract, continuous phosphate release (EnzChek). The following applies: raw leaf extract, mixed isozymes; no EPSPS mutation found in this resistant population; read-out: I50. The assay is classed as biochemical, Bidens pilosa.

Structures are written as SMILES.

`O=C(O)CNCP(=O)(O)O` [glyphosate]: the IC50 in assay [1] is 0.96 µM; in assay [2], 123 ± 2.1 µM; in assay [3] it was 8.2 ± 1.1 µM.
